“And” between values parts separate entries of the source, which are not always exact repeats. Identical values can stand only once. Inconclusive results and toxic doses are left out. Rule as the data show it: active = T/C of 150% or more; inactive = T/C below 125%. Square brackets hold non-standard residues; d marks the D form. Peptide text beside a SMILES is read from it. * marks the point of attachment. ξ: configuration not given here. Cbz = O=C(OCc1ccccc1)*; ξV = CC(C)C(N)C(=O)O; OBn = c1ccc(CO*)cc1
Tested on: L1210 leukemia ip in BDF1 mice, survival T/C
Assay: NCI In Vivo Anticancer Drug Screen. Data for tumor model L1210 Leukemia (intraperitoneal) in B6D2F1 (BDF1) mice
Conditions: endpoint: mean survival time, higher = longer survival
In short: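 In this screen, tumor-bearing mice given compound are compared to those given vehicle, and their survival values are reported as a treated-to-control quotient.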

[1] = dose: 100.0 mg/kg/injection, schedule: Q01DX001 (ip), vehicle: saline
[2] = dose: 200.0 mg/kg/injection, schedule: Q01DX001 (ip), vehicle: saline
[3] = dose: 100.0 mg/kg/injection, schedule: Q01DX009 (ip), vehicle: saline
[4] = dose: 200.0 mg/kg/injection, schedule: Q01DX009 (ip), vehicle: saline
[5] = dose: 400.0 mg/kg/injection, schedule: Q01DX009 (ip), vehicle: saline
[6] = dose: 100.0 mg/kg/injection, schedule: Q01DX009 (ip), vehicle: saline with Tween-80
[7] = dose: 100.0 mg/kg/injection, schedule: Q04DX003 (ip), vehicle: saline with Tween-80
[8] = dose: 200.0 mg/kg/injection, schedule: Q01DX009 (ip), vehicle: saline with Tween-80
[9] = dose: 200.0 mg/kg/injection, schedule: Q04DX003 (ip), vehicle: saline with Tween-80
[10] = dose: 400.0 mg/kg/injection, schedule: Q01DX009 (ip), vehicle: saline with Tween-80
[11] = dose: 400.0 mg/kg/injection, schedule: Q04DX003 (ip), vehicle: saline with Tween-80
[12] = dose: 100.0 mg/kg/injection, schedule: Q04DX003 (ip), vehicle: Klucel (hydroxypropylcellulose) (HPC)
[13] = dose: 200.0 mg/kg/injection, schedule: Q04DX003 (ip), vehicle: Klucel (hydroxypropylcellulose) (HPC)
[14] = dose: 400.0 mg/kg/injection, schedule: Q04DX003 (ip), vehicle: Klucel (hydroxypropylcellulose) (HPC)
[15] = dose: 100.0 mg/kg/injection, schedule: Q01DX009 (ip), vehicle: Klucel (hydroxypropylcellulose) (HPC)
[16] = dose: 200.0 mg/kg/injection, schedule: Q01DX009 (ip), vehicle: Klucel (hydroxypropylcellulose) (HPC)

Measured: T/C

CCCCCCCCC(=O)N(CC(C)C)CC(C)C
inactive: dose: 100.0 mg/kg/injection, schedule: Q01DX001 (ip), vehicle: carboxymethylcellulose (CMC) 93 % of control | dose: 100.0 mg/kg/injection, schedule: Q01DX009 (ip), vehicle: carboxymethylcellulose (CMC) 101 % of control | dose: 100.0 mg/kg/injection, schedule: Q04DX002 (ip), vehicle: carboxymethylcellulose (CMC) 94 % of control | dose: 100.0 mg/kg/injection, schedule: Q04DX003 (ip), vehicle: carboxymethylcellulose (CMC) 101 % of control | dose: 200.0 mg/kg/injection, schedule: Q01DX001 (ip), vehicle: carboxymethylcellulose (CMC) 91 % of control | dose: 200.0 mg/kg/injection, schedule: Q01DX009 (ip), vehicle: carboxymethylcellulose (CMC) 101 % of control and 106 % of control | dose: 200.0 mg/kg/injection, schedule: Q04DX002 (ip), vehicle: carboxymethylcellulose (CMC) 102 % of control | dose: 200.0 mg/kg/injection, schedule: Q04DX003 (ip), vehicle: carboxymethylcellulose (CMC) 101 % of control | dose: 400.0 mg/kg/injection, schedule: Q01DX001 (ip), vehicle: carboxymethylcellulose (CMC) 93 % of control | dose: 400.0 mg/kg/injection, schedule: Q04DX002 (ip), vehicle: carboxymethylcellulose (CMC) 97 % of control | dose: 400.0 mg/kg/injection, schedule: Q04DX003 (ip), vehicle: carboxymethylcellulose (CMC) 104 % of control

COc1ccc(C(C)=O)c(O)c1OC
inactive: [1] 101 % of control | [2] 101 % of control | dose: 400.0 mg/kg/injection, schedule: Q01DX001 (ip), vehicle: saline 98 % of control

CCN(CC)CCNc1ccccc1Cl
inactive: [1] 101 % of control | [2] 101 % of control

CCC1OC2(C)CCCC1O2 (configuration not stated)
inactive: dose: 25.0 mg/kg/injection, schedule: Q01DX001 (ip), vehicle: saline sonified 111 % of control | dose: 50.0 mg/kg/injection, schedule: Q01DX001 (ip), vehicle: saline sonified 101 % of control | dose: 100.0 mg/kg/injection, schedule: Q01DX001 (ip), vehicle: saline sonified 122 % of control

COC1=C(CNc2ncnc3nc[nH]c23)CC=CC1
inactive: [3] 95 % of control | [4] 97 % of control | [5] 100 % of control

CNc1ccc(C(=O)c2ccccc2C(=O)O)cc1[N+](=O)[O-]
inactive: [6] 92 % of control | [7] 97 % of control | [8] 95 % of control | [9] 89 % of control | [10] 93 % of control | [11] 94 % of control

N#CCC[N+]1([O-])CCCCC1C(=O)O (configuration not stated)
inactive: [1] 98 % of control | [2] 98 % of control

Cc1ccc(NN)cc1Cl
inactive: [12] 105 % of control | [13] 91 % of control

CNS(=O)(=O)c1c(C)cccc1CC(=O)c1ccccc1
inactive: dose: 100.0 mg/kg/injection, schedule: Q01DX001 (ip), vehicle: steriod suspending solution 96 % of control | dose: 400.0 mg/kg/injection, schedule: Q01DX001 (ip), vehicle: steriod suspending solution 94 % of control

CC(C)C(NC(=O)CNC(=O)CNC(=O)OCc1ccccc1)C(=O)OCc1ccccc1 (stereo not drawn) (Cbz-Gly-Gly-[ξV]-OBn)
inactive: [12] 95 % of control | [13] 96 % of control | [14] 96 % of control

N=C(N[N+](=O)[O-])N(CCC(=O)O)N=O
inactive: dose: 50.0 mg/kg/injection, schedule: Q01DX001 (ip), vehicle: saline 100 % of control | dose: 50.0 mg/kg/injection, schedule: Q01DX009 (ip), vehicle: saline 90 % of control | dose: 53.0 mg/kg/injection, schedule: Q01DX015 (ip), vehicle: saline 113 % of control | dose: 79.0 mg/kg/injection, schedule: Q01DX015 (ip), vehicle: saline 124 % of control | dose: 100.0 mg/kg/injection, schedule: Q01DX001 (ip), vehicle: other 97 % of control | [1] 107 % of control | dose: 100.0 mg/kg/injection, schedule: Q01DX009 (ip), vehicle: other 103 % of control | [3] 96 % of control | dose: 100.0 mg/kg/injection, schedule: Q04DX003 (ip), vehicle: saline 96 % of control | dose: 178.0 mg/kg/injection, schedule: Q01DX001 (ip), vehicle: saline 109 % of control and 122 % of control | dose: 178.0 mg/kg/injection, schedule: Q01DX015 (ip), vehicle: saline 116 % of control | dose: 200.0 mg/kg/injection, schedule: Q01DX001 (ip), vehicle: other 101 % of control | [2] 113 % of control | dose: 200.0 mg/kg/injection, schedule: Q01DX009 (ip), vehicle: other 98 % of control | [4] 104 % of control | dose: 200.0 mg/kg/injection, schedule: Q04DX003 (ip), vehicle: saline 98 % of control | dose: 267.0 mg/kg/injection, schedule: Q01DX001 (ip), vehicle: saline 112 % of control and 121 % of control | dose: 400.0 mg/kg/injection, schedule: Q01DX001 (ip), vehicle: other 100 % of control | dose: 400.0 mg/kg/injection, schedule: Q01DX009 (ip), vehicle: other 98 % of control | [5] 100 % of control | dose: 400.0 mg/kg/injection, schedule: Q04DX003 (ip), vehicle: saline 91 % of control | dose: 600.0 mg/kg/injection, schedule: Q01DX001 (ip), vehicle: other 94 % of control | dose: 800.0 mg/kg/injection, schedule: Q01DX001 (ip), vehicle: other 92 % of control | dose: 800.0 mg/kg/injection, schedule: Q01DX001 (ip), vehicle: saline 86 % of control

c1ccc(NC2C(=C(c3ccccc3)c3ccccc3)N3CCC2CC3)cc1 (configuration not stated)
inactive: [12] 95 % of control | [13] 94 % of control | [14] 95 % of control

Brc1cnc(Br)s1
inactive: dose: 44.0 mg/kg/injection, schedule: Q04DX002 (ip), vehicle: Klucel (hydroxypropylcellulose) (HPC) 97 % of control | dose: 67.0 mg/kg/injection, schedule: Q04DX002 (ip), vehicle: Klucel (hydroxypropylcellulose) (HPC) 109 % of control | dose: 100.0 mg/kg/injection, schedule: Q04DX002 (ip), vehicle: Klucel (hydroxypropylcellulose) (HPC) 116 % of control | dose: 150.0 mg/kg/injection, schedule: Q04DX002 (ip), vehicle: Klucel (hydroxypropylcellulose) (HPC) 113 % of control

CCOC(=O)C(CCNC(=O)c1ccccc1)C(=O)OCC
inactive: [15] 103 % of control | [12] 93 % of control | [16] 91 % of control | [13] 95 % of control | dose: 400.0 mg/kg/injection, schedule: Q01DX009 (ip), vehicle: Klucel (hydroxypropylcellulose) (HPC) 89 % of control | [14] 93 % of control

O=C(O)C1C(Cl)C(Cl)C1C(=O)O (configuration not stated)
inactive: dose: 75.0 mg/kg/injection, schedule: Q01DX001 (ip), vehicle: saline 104 % of control | dose: 150.0 mg/kg/injection, schedule: Q01DX001 (ip), vehicle: saline 101 % of control | dose: 300.0 mg/kg/injection, schedule: Q01DX001 (ip), vehicle: saline 96 % of control

O=c1[nH]c(-c2ccccc2)nc(-c2ccccc2)c1CCO
inactive: [6] 92 % of control | [8] 86 % of control | [10] 91 % of control

NC(=O)C1C2C=CC(C2)C1C(N)=O (configuration not stated)
inactive: [7] 96 % of control | [9] 91 % of control | [11] 98 % of control

COC(=O)C1CC(C)(C)N(C)C1(C)C (configuration not stated)
inactive: [15] 101 % of control | [12] 100 % of control | [16] 106 % of control and 92 % of control | [13] 103 % of control

Reference: PubChem BioAssay AID248 (DTP/NCI, 2004)
